Measured values taken from article PMC5551389 (Nature, 2016).

Assays:
[1] = tested on: HIV-1; experiment: microbe, parasite or virus in culture; type: cell-based, human immunodeficiency virus type 1
[2] = tested on: CHIV; experiment: microbe, parasite or virus in culture; type: cell-based; settings: Chikungunya virus, U2OS
[3] = tested on: human monocyte-derived macrophages
[4] = tested on: RSV A2; experiment: microbe, parasite or virus in culture; type: cell-based; settings: human respiratory syncytial virus

Q: Which results are given for `CCC(CC)COC(=O)[C@H](C)N[P@](=O)(OC[C@H]1O[C@@](C#N)(c2ccc3c(N)ncnn23)[C@H](O)[C@@H]1O)Oc1ccccc1` [GS-5734]?
A: EC50 ([1]; Human immunodeficiency virus 1, read-out: Antiviral activity EC50): > 20 µM; EC90 ([1]; Human immunodeficiency virus 1, read-out: Antiviral activity EC90): > 20 µM; EC50 ([2]; read-out: Antiviral activity EC50): > 20 µM; EC90 ([2]; read-out: Antiviral activity EC90): > 20 µM; Intracellular NTP levels, fold higher than with Nuc [3]: up to 30 fold; EC50 ([4]; HEp-2, read-out: Antiviral activity EC50): 0.019 µM; EC90 ([4]; HEp-2, read-out: Antiviral activity EC90): 0.051 µM
